Results as given in patent US10000521B2 (priority 2013, dated 2018).

Assays:
HCV replicon = assay: IC50 assay with HCV luciferase replicon cell-line; type: cell-based; settings: Hepatitis C virus, Huh-7; Huh7 cell line containing HCV replicon with luciferase reporter, 48 h
Excerpt: Plating Cells: The cells used in these assays were a liver-derived Huh7 cell line containing an HCV replicon bearing a luciferase reporter gene. The Huh7 cell-line can be obtained from various sources including the Japanese Collection of Research Bioresources (JCRB), Osaka, Japan. The Huh7 cell line containing an HCV replicon bearing a luciferase reporter gene can be prepared essentially as described by Vrolijk J M, et al. (J Virol Methods. (2003) 110(2):201-9). Cells were passaged when they reached about 70% confluency.
These 0.5 mM dilutions were then used to further serially dilute the compounds in DMEM+2% FBS+0.5% DMSO to keep the concentration of DMSO in each condition identical.
The Glo Lysis Buffer and the Bright Glow reagent was allowed to warm to room temperature for about 30 min in the dark. […] The media was removed from cells, and the cells were gently washed with about 100 μL of phosphate buffered saline (PBS). […] It should be noted that luciferin has a half-life of approximately 30 min at room temperature after it is added to the plate. […] The data was saved and used to calculate the percent inhibition of luciferase activity at each drug concentration. […] Curve equation: (m1−m2)/(1+(x/m3)^m4); m1=100; m2=0.01; m3=0.01; m4=0.01; the equation is: […]

Huh7 cells = assay: TC50 MTS cell viability assay with Huh7 cells (48 h); type: cell-based; settings: Homo sapiens, Huh-7
Excerpt: Plating Cells: Huh7 cells (a hepatocellular carcinoma cell-line; these cells can be obtained from the Japanese Collection of Research Bioresources (JCRB), Osaka, Japan) were used to determine the TC50 for representative compounds of the present invention. Briefly, Huh7 cells were passaged when they reached about 70% confluency. The cells were counted using a hemocytometer following dilution of the cells to about 0.5×10^5 cells per mL in DMEM with 10% fetal bovine serum (FBS). The cells were plated in a clear 96-well plate (about 5,000 cells in 100 μL per well). The cells were allowed to attach for about 24 hours at 37° C.
Treating of the cells: The DMEM media without phenol red containing 2% FBS was pre-warmed to 37° C. […] Following dilution, the final DMSO concentration was about 0.5% (v/v). […] The plates were then returned to the incubator and incubated with the cells for 48 h at 37° C.
(§1) The 96-well plate with cells incubated with test compound was removed from the 37° C. incubator. The appropriate amounts of the MTS and PMS reagents were removed from the kit and mixed well. The reagents were maintained in the dark due to their light sensitivity. […] The solutions were mixed completely in the wells prior to each reading.

[1] = Stability test at different pH conditions (HPLC); type: physicochemical
Protocol: HPLC analysis: 100 μl of the incubated solution was loaded onto a Vydac C18 analytical column 4.6/250, and the mobile phase run at 1 mL/min water with the following procedures: a. Inject 100 μl the incubated solution; b. Water for 5 minutes at 1 ml/min; c. 0-100% acetonitrile over 30 minutes; d. Back to 100% water.
Analysis: Standard HPLC analysis software was used to quantitate the area under each peak. Degradation peaks were quantitated as a percentage of the peak of the same amount of control sample (no heat treatment).

Huh7 = assay: TC50 assay in different human cell lines (96 h), Huh7; type: cell-based; settings: Huh-7, about 96 h, MTS assay
Protocol: as §1
(§2) Plating Cells: Huh7, HEPG2, HEK293, MCF-7, or BxPC3 cells (which can be obtained from American Type Culture Collection, ATCC) were passaged when they were about 70% confluent. […] The cells following passaging were allowed to attach for about 24 hours at 37° C.
(§3) The plates were then returned to the incubator, and cells incubated for about 96 h at 37° C.
(§4) MTS Assay: Assay was carried out as described above.

HEPG2 = assay: TC50 assay in different human cell lines (96 h), HEPG2; type: cell-based; settings: about 96 h, MTS assay
Protocol: as §1, §2, §3, §4

[2] = TC50 assay in different human cell lines (96 h), HEK293; type: cell-based; settings: HEK293 cells, about 96 h, MTS assay
Protocol: as §1, §2, §3, §4

MCF-7 = assay: TC50 assay in different human cell lines (96 h), MCF-7; type: cell-based; settings: MCF7, about 96 h, MTS assay
Protocol: as §1, §2, §3, §4

BxPC3 = assay: TC50 assay in different human cell lines (96 h), BxPC3; type: cell-based; settings: BXPC-3, about 96 h, MTS assay
Protocol: as §1, §2, §3, §4

PK9 cells [3] = assay: TC50 assay with inhibition of ENT1, PK9 cells; type: cell-based; settings: Homo sapiens, PK9, 48 h, PK9 cells (48 h)
Protocol: Plating Cells: Huh7 cells or PK9 cells were seeded in 96-well plates at a density of 5,000 cells/well or 2,500 cells/well, respectively, and the plates were incubated at 37° C. for 24 h to allow for cell attachment.
Treatment with equilibrative nucleoside transporter 1 (ENT1) Inhibitor: The media was then removed from the plates and replaced with media containing 2% FBS, 0.5% DMSO, and either 10 μM dipyramidole or 10 μM S-(4-nitrobenzyl)-6-thioinosine (NBTI).
Treating with Control & Compound 1: After incubation with the ENT1 inhibitor, the cells were treated with each compound at final concentrations ranging from 500 μM to 0 μM in triplicate in media containing 2% FBS, 0.5% DMSO, and either 10 μM dipyridamole or 10 μM NBTI.

PK9 cells [4] = assay: TC50 assay, effect of deficient deoxycytidine kinase activity, PK9 cells; type: cell-based; settings: Homo sapiens, 48 h, read-out: TC50 (μM), 48 h treatment
Protocol: (§5) Plating Cells: PK9 or RPK9 cells were seeded in 96-well plates at a density of 2,500 cells/well or 2,500 cells/well, respectively, and the plates were incubated at 37° C. for 24 h to allow for cell attachment.
(§6) Treating with Control & Compound 1: The cells were treated with each compound at final concentrations ranging from 500 μM to 0 μM in triplicate in media containing 2% FBS and 0.5% DMSO.
(§7) The RPK9 cells are described in Saiki, T., et al. (2012) Biochim. Biophys. Res. Commun. 421, 98-104).

RPK9 cells = assay: cells; settings: Homo sapiens, 48 h, read-out: TC50 (μM), 48 h treatment
Protocol: as §5, §6, §7

[5] = In vivo pharmacokinetic assessment (LC-MS/MS, plasma and liver); settings: mice, oral, plasma and liver samples
Protocol: All pharmacokinetic studies were performed with CD-1 ICR mice (female, 4-6 week old; 20-30 gram body weight), and three mice were used at each dose level and at each time point for each compound tested. […] Tetrahydrouridine (THU) was immediately added to plasma samples at a final concentration of 25 μg/mL to prevent deamination of dFdC after collection, and the samples were subsequently flash-frozen and stored at −80° C. until analysis. Approximately 200-300 mg of each mouse liver was dissected and homogenized in 150 μL of phosphate buffered saline (PBS) containing 25 μg/mL THU, resulting in 2 mg liver/μL saline homogenate. These liver homogenates were also flash-frozen and stored at −80° C. until analysis. Equivalent amounts of blood plasma and liver tissue were also collected from untreated mice and used to prepare calibration standards and quality controls. An LC-MS/MS assay was utilized to simultaneously quantify the concentrations of compound 1, dFdC and dFdU in each of the plasma and liver samples.

## O=C(Nc1ccn(C2O[C@H](CO)[C@@H](O)C2(F)F)c(=O)n1)c1cc2c(cc1[N+](=O)[O-])OCO2 (stereo in doubt) [Compound 9]
HCV replicon
  IC50: 0.047 ± 0.004 µM
Huh7 cells
  CC50: > 500 µM

## O=C(Nc1ccn(C2O[C@H](CO)[C@@H](O)C2(F)F)c(=O)n1)c1ccc2c(c1)OCCO2 (stereo partly drawn) [Compound 2, N-(1-((4R,5R)-3,3-difluoro-4-hydroxy-5-(hydroxymethyl)tetrahydrofuran-2-yl)-2-oxo-1,2-dihydropyrimidin-4-yl)-2,3-dihydrobenzo[b][1,4]dioxine-6-carboxamide]
HCV replicon
  IC50: 0.127 ± 0.009 µM
Huh7 cells
  CC50: 855 ± 166 µM
[1]; Pretreatment
  Compound remaining (%): 100%
[1]; pH 1, 40° C., 4 h
  Compound remaining (%): 71%
[1]; pH 2, 40° C., 4 h
  Compound remaining (%): 100%
[1]; pH 4, 40° C., 4 h
  Compound remaining (%): 100%
[1]; pH 6, 40° C., 4 h
  Compound remaining (%): 100%
[1]; pH 8, 40° C., 4 h
  Compound remaining (%): 100%
Huh7
  CC50: 3.34 µM
HEPG2
  CC50: 1.13 µM
[2]
  CC50 at 96 h: 5.61 µM
MCF-7
  CC50: 1.44 µM
BxPC3
  CC50: 1.15 µM

## O=C(Nc1ccn([C@@H]2O[C@H](CO)C(O)C2(F)F)c(=O)n1)c1ccc2c(c1)OCCCO2 (some centres unmarked) [Compound 3]
HCV replicon
  IC50: 0.092 ± 0.008 µM
Huh7 cells
  CC50: 881 ± 287 µM

## CC1(C)Cc2ccc(C(=O)Nc3ccn([C@@H]4O[C@H](CO)C(O)C4(F)F)c(=O)n3)cc2O1 (some centres unmarked) [Compound 4]
HCV replicon
  IC50: 0.177 ± 0.045 µM
Huh7 cells
  CC50: 1160 ± 204 µM

## O=C(Nc1ccn([C@@H]2O[C@H](CO)C(O)C2(F)F)c(=O)n1)c1ccc2c(c1)CCO2 (some centres unmarked) [Compound 5]
HCV replicon
  IC50: 0.145 ± 0.017 µM
Huh7 cells
  CC50: 954 ± 247 µM

## O=C(Nc1ccn([C@@H]2O[C@H](CO)C(O)C2(F)F)c(=O)n1)c1c(Br)ccc2c1OCO2 (some centres unmarked) [Compound 6]
HCV replicon
  IC50: 0.34 ± 0.045 µM
Huh7 cells
  CC50: 2210 ± 821 µM

## O=C(Nc1ccn([C@@H]2O[C@H](CO)C(O)C2(F)F)c(=O)n1)c1ccc2c(c1)OC(F)(F)O2 (some centres unmarked) [Compound 7]
HCV replicon
  IC50: 0.046 ± 0.027 µM
Huh7 cells
  CC50: 188 ± 50 µM

## Cc1cc2c(cc1C(=O)Nc1ccn([C@@H]3O[C@H](CO)C(O)C3(F)F)c(=O)n1)OCCO2 (some centres unmarked) [Compound 8]
HCV replicon
  IC50: 1.69 ± 1.06 µM
Huh7 cells
  CC50: 626 ± 191 µM

## Nc1ccn([C@@H]2O[C@H](CO)[C@@H](O)C2(F)F)c(=O)n1 [Gem, 4-amino-1-((2R,4R,5R)-3,3-difluoro-4-hydroxy-5-(hydroxymethyl)tetrahydrofuran-2-yl)pyrimidin-2(1H)-one, reference compound]
HCV replicon
  IC50: 0.058 ± 0.006 µM
PK9 cells [3]; 10 μM NBTI
  CC50: 1.92 ± 0.78 µM
PK9 cells [3]; 10 μM dipyridamole
  CC50: 193 ± 20 µM
PK9 cells [3]; ENT1 inhibitor: None
  CC50: 0.095 ± 0.035 µM
PK9 cells [4]
  CC50: 0.095 ± 0.035 µM
RPK9 cells
  CC50: > 500 µM
Huh7
  CC50: 3.41 µM
HEPG2
  CC50: 0.311 µM
MCF-7
  CC50: 0.067 µM
BxPC3
  CC50: 0.0029 µM
[5]
  first-pass metabolism to inactive metabolite dFdU: extensive first-pass metabolism
